The experiment has as its target T1, human PTH1 receptor (Homo sapiens, UniProt Q03431).
T1 sequence (Q03431 27-593): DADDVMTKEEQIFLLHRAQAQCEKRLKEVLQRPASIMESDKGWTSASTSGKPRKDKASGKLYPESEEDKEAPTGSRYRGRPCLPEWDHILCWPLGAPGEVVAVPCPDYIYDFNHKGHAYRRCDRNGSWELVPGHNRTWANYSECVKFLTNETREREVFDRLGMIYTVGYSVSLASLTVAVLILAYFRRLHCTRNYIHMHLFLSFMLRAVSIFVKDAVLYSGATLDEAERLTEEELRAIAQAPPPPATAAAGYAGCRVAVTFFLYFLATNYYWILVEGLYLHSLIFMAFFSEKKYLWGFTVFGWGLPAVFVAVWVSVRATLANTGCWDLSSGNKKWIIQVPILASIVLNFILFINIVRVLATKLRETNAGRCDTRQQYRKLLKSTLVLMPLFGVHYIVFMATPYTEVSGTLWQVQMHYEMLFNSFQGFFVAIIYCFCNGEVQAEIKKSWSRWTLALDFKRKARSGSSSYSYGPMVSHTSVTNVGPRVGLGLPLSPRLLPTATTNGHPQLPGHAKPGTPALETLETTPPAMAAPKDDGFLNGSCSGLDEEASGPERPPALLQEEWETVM
Kind of experiment: In vitro cAMP signal activity in HKRK-B7 cells (LLC-PK1 cells overexpressing the human PTH1 receptor). Type of experiment: cell-based. To be noted: HKRK-B7 cells, compound at 1×10^−3 M.

Where [1] appears, read: cAMP produced as percentage of that produced by hPTH(1-34) at 100 nM.

As to `Cc1cc(C(=O)N(C)C)ccc1CCS(=O)(=O)N1CCC2(CC1)N=C(C1CCOCC1)NC2=O` [Compound 123, 3,N,N-trimethyl-4-{2-[4-oxo-2-(tetrahydro-pyran-4-yl)-1,3,8-triaza-spiro[4.5]dec-1-ene-8-sulfonyl]-ethyl}-benzamide], the “cAMP production activity (%)” value under setting [1] is recorded as 23%. Still for that read-out and setting: in the case of `Cc1cc(N(C)C(N)=O)cc(C)c1/C=C\S(=O)(=O)N1CCC2(CC1)N=C(CCCCCc1ccccc1)NC2=O.O=C(O)C(F)(F)F` [Compound 1134, 1-(3,5-dimethyl-4-{(Z)-2-[4-oxo-2-(5-phenyl-pentyl)-1,3,8-triaza-spiro[4.5]dec-1-ene-8-sulfonyl]-vinyl}-phenyl)-1-methyl-urea trifluoroacetate] it was 50%.

As for `O=C1NC(C2CCCCC2)=NC12CCN(S(=O)(=O)c1cccc(Cl)c1)CC2` [Compound 1, 8-(3-Chloro-benzenesulfonyl)-2-cyclohexyl-1,3,8-triaza-spiro[4.5]dec-1-en-4-one], the “cAMP production activity (%)” value under setting [1] was 42%. Same read-out and setting: as for `O=C1NC(C2CCCCC2)=NC12CCN(S(=O)(=O)CCc1cccc3c1ccn3C[C@H](O)[C@@H](O)COCc1ccccc1)CC2` [Compound 1393, 8-{2-[1-((2S,3S)-4-benzyloxy-2,3-dihydroxy-butyl)-1H-indol-4-yl]-ethanesulfonyl}-2-cyclohexyl-1,3,8-triaza-spiro[4.5]dec-1-en-4-one], the figure is 84%; as for `CC(=O)Nc1cc(C)c(/C=C/S(=O)(=O)N2CCC3(CC2)N=C(c2cccc(OC(F)(F)F)c2)NC3=O)c(C)c1` [Compound 238, N-(3,5-dimethyl-4-{(E)-2-[4-oxo-2-(3-trifluoromethoxy-phenyl)-1,3,8-triaza-spiro[4.5]dec-1-ene-8-sulfonyl]-vinyl}-phenyl)-acetamide], 90%. `Cc1cc(C(=O)N2CCNC(=O)C2)cc(C)c1/C=C/S(=O)(=O)N1CCC2(CC1)N=C(c1ccc(F)c(C(F)(F)F)c1)NC2=O` [Compound 968, 8-{(E)-2-[2,6-Dimethyl-4-(3-oxo-piperazine-1-carbonyl)-phenyl]-ethenesulfonyl}-2-(4-fluoro-3-trifluoromethyl-phenyl)-1,3,8-triaza-spiro[4.5]dec-1-en-4-one]: the “cAMP production activity (%)” value under setting [1] is reported as 69%.

`Cc1cc(S(=O)(=O)NC2CCN(Cc3ccccc3)CC2)ccc1/C=C/S(=O)(=O)N1CCC2(CC1)N=C(c1cccc(OC(F)(F)F)c1)NC2=O` [Compound 596, N-(1-Benzyl-piperidin-4-yl)-3-methyl-4-{(E)-2-[4-oxo-2-(3-trifluoromethoxy-phenyl)-1,3,8-triaza-spiro[4.5]dec-1-ene-8-sulfonyl]-vinyl}-benzenesulfonamide]: the “cAMP production activity (%)” value under setting [1] was found to be 40%. The same measure, in the same setting: in the case of `CC(=O)N(CCO)c1cc(C)c(CCS(=O)(=O)N2CCC3(CC2)N=C(c2cccc(OC(F)(F)F)c2)NC3=O)cc1F` [Compound 873, N-(2-fluoro-5-methyl-4-{2-[4-oxo-2-(3-trifluoromethoxy-phenyl)-1,3,8-triaza-spiro[4.5]dec-1-ene-8-sulfonyl]-ethyl}-phenyl)-N-(2-hydroxy-ethyl)-acetamide] it was 77%. Take `Cc1cc(NCC(N)=O)ccc1/C=C/S(=O)(=O)N1CCC2(CC1)N=C(c1cccc(OC(F)(F)F)c1)NC2=O` [Compound 529, 2-(3-methyl-4-{(E)-2-[4-oxo-2-(3-trifluoromethoxy-phenyl)-1,3,8-triaza-spiro[4.5]dec-1-ene-8-sulfonyl]-vinyl}-phenylamino)-acetamide]: the “cAMP production activity (%)” value under setting [1] is listed as 68%. The same measure, in the same setting: in the case of `CCCCCCCCCC1=NC2(CCN(S(=O)(=O)/C=C/c3ccc(N(CCOCCO)C(C)=O)cc3C)CC2)C(=O)N1` [Compound 700, N-[2-(2-Hydroxy-ethoxy)-ethyl]-N-{3-methyl-4-[(E)-2-(2-nonyl-4-oxo-1,3,8-triaza-spiro[4.5]dec-1-ene-8-sulfonyl)-vinyl]-phenyl}-acetamide] it was 121%. In the case of `CN1CCCc2c(/C=C/S(=O)(=O)N3CCC4(CC3)N=C(C3CCCCC3)NC4=O)cccc21` [Compound 638, 2-cyclohexyl-8-[(E)-2-(1-methyl-1,2,3,4-tetrahydro-quinolin-5-yl)-ethenesulfonyl]-1,3,8-triaza-spiro[4.5]dec-1-en-4-one], the “cAMP production activity (%)” value under setting [1] was determined as 46%.

In the case of `O=C1NC(C2CCCCCC2)=NC12CCN(S(=O)(=O)/C=C/c1cccc3c1ccn3C[C@H](O)CO)CC2` [Compound 240, 2-Cycloheptyl-8-{(E)-2-[1-((S)-2,3-dihydroxy-propyl)-1H-indol-4-yl]-ethenesulfonyl}-1,3,8-triaza-spiro[4.5]dec-1-en-4-one], the “cAMP production activity (%)” value under setting [1] was 49%.

Regarding `O=C1NC(CCC2CCCCC2)=NC12CCN(S(=O)(=O)c1cccc(Cl)c1)CC2` [Compound 30, 8-(3-chloro-benzenesulfonyl)-2-(2-cyclohexyl-ethyl)-1,3,8-triaza-spiro[4.5]dec-1-en-4-one], under setting [1], the “cAMP production activity (%)” value is 26%. On to `Cc1cc(C(=O)N2CCC(C)(O)CC2)cc(C)c1CCS(=O)(=O)N1CCC2(CC1)N=C(C1CCC(C)CC1)NC2=O` (stereo not drawn) [Compound 1382, 8-{2-[4-(4-hydroxy-4-methyl-piperidine-1-carbonyl)-2,6-dimethyl-phenyl]-ethanesulfonyl}-2-(4-methyl-cyclohexyl)-1,3,8-triaza-spiro[4.5]dec-1-en-4-one], for which the “cAMP production activity (%)” value under setting [1] is listed as 93%. Still for that read-out and setting: in the case of `CCCCCCCCCC1=NC2(CCN(S(=O)(=O)/C=C/c3ccc(N4C(=O)COCC4=O)cc3C)CC2)C(=O)N1` [Compound 538, 4-{3-methyl-4-[(E)-2-(2-nonyl-4-oxo-1,3,8-triaza-spiro[4.5]dec-1-ene-8-sulfonyl)-vinyl]-phenyl}-morpholine-3,5-dione] it was 133%. In the case of `Cc1cc(N(C)C(N)=S)cc(C)c1CCS(=O)(=O)N1CCC2(CC1)N=C([C@H]1CC[C@H](C)CC1)NC2=O` [Compound 474, 1-(3,5-Dimethyl-4-{2-[2-(4-methyl-cyclohexyl)-4-oxo-1,3,8-triaza-spiro[4.5]dec-1-ene-8-sulfonyl]-ethyl}-phenyl)-1-methyl-thiourea], the “cAMP production activity (%)” value ([…], 0.1 µM) stood at 89%.

As for `COc1c(N(C)C(N)=O)cc(C)c(/C=C/S(=O)(=O)N2CCC3(CC2)N=C([C@H]2CC[C@H](C)CC2)NC3=O)c1C` [Compound 693, 1-(2-Methoxy-3,5-dimethyl-4-{(E)-2-[2-(4-methyl-cyclohexyl)-4-oxo-1,3,8-triaza-spiro[4.5]dec-1-ene-8-sulfonyl]-vinyl}-phenyl)-1-methyl-urea], under setting [1], the “cAMP production activity (%)” value was determined as 103%. Still for that read-out and setting: as for `Cc1cc2[nH]ccc2cc1/C=C/S(=O)(=O)N1CCC2(CC1)N=C(C1CCCCC1)NC2=O` [Compound 488, 2-cyclohexyl-8-[(E)-2-(6-methyl-1H-indol-5-yl)-ethenesulfonyl]-1,3,8-triaza-spiro[4.5]dec-1-en-4-one], the figure is 48%; as for `COCCN(C(C)=O)c1cc(C)c(/C=C/S(=O)(=O)N2CCC3(CC2)N=C(C2CCC(CCC(F)(F)F)CC2)NC3=O)c(C)c1` (stereo not drawn) [Compound 543, N-[3,5-dimethyl-4-((E)-2-{4-oxo-2-[4-(3,3,3-trifluoro-propyl)-cyclohexyl]-1,3,8-triaza-spiro[4.5]dec-1-ene-8-sulfonyl}-vinyl)-phenyl]-N-(2-methoxy-ethyl)-acetamide], 76%. In the case of `O=C(N1CCOCC1)n1ccc2c(/C=C/S(=O)(=O)N3CCC4(CC3)N=C(C3CCCCC3)NC4=O)cccc21` [Compound 477, 2-cyclohexyl-8-{(E)-2-[1-(morpholine-4-carbonyl)-1H-indol-4-yl]-ethenesulfonyl}-1,3,8-triaza-spiro[4.5]dec-1-en-4-one], the “cAMP production activity (%)” value under setting [1] turned out to be 31%.

For `Cc1cc(N(C)C(N)=O)cc(C)c1CCS(=O)(=O)N1CCC2(CC1)N=C(C1CCCC(C(F)(F)F)C1)NC2=O` (stereo not drawn) [Compound 1050, 1-(3,5-Dimethyl-4-{2-[4-oxo-2-(3-trifluoromethyl-cyclohexyl)-1,3,8-triaza-spiro[4.5]dec-1-ene-8-sulfonyl]-ethyl}-phenyl)-1-methyl-urea], the “cAMP production activity (%)” value under setting [1] is 92%. In the case of `C/C=C/C1=NC2(CCN(S(=O)(=O)CCc3ccc(C(=O)N(C)C)cc3C)CC2)C(=O)N1` [Compound 141, 3,N,N-trimethyl-4-{2-[4-oxo-2-((E)-propenyl)-1,3,8-triaza-spiro[4.5]dec-1-ene-8-sulfonyl]-ethyl}-benzamide], the “cAMP production activity (%)” value under setting [1] is 32%. The same measure, in the same setting: as for `O=C1NC(c2cccc(OC(F)(F)F)c2)=NC12CCN(S(=O)(=O)CCc1cccc3cnccc13)CC2` [Compound 653, 8-(2-Isoquinolin-5-yl-ethanesulfonyl)-2-(3-trifluoromethoxy-phenyl)-1,3,8-triaza-spiro[4.5]dec-1-en-4-one], the figure is 67%; as for `Cc1c(CCS(=O)(=O)N2CCC3(CC2)N=C(c2cccc(OC(F)(F)F)c2)NC3=O)cccc1C(=O)N(C)C` [Compound 409, 2,N,N-Trimethyl-3-{2-[4-oxo-2-(3-trifluoromethoxy-phenyl)-1,3,8-triaza-spiro[4.5]dec-1-ene-8-sulfonyl]-ethyl}-benzamide], 55%.

Source of the values: patent US9169254B2, “Spiroimidazolone derivative” (Chugai Seiyaku Kabushiki Kaisha, priority 2009, dated 2015).
